According to US9643971B2 (GALLEON PHARMACEUTICALS, INC., priority 2013, dated 2017):
Entries after “also recorded” stand apart in the source; their conditions may differ.

What was measured:
[1] = in vitro; details: male, rat, microsomes
[2] = In vitro metabolic stability in human liver microsomes (HLM); details: both, human, liver microsomes
[3] = test system: anesthetized rat; experiment: Anesthetized rat spirometry screening assay; assay type: in vivo; details: for AUC MV Inc (2 min) (ratio vs. std*): 2 minute AUC of minute volume increase vs. comparator N-[2,6-di-(n-propylamino)-[1,3]pyrimidin-4-yl]-N,O-dimethyl-hydroxylamine
Description: Effect of Compounds of the Invention on Respiratory Rate (RR), Tidal Volume (VT), and the Product Minute Volume Using an Anesthetized Rat Spirometry Screening Assay
Anesthetized rats provide a quick method of screening compounds for respiratory and cardiovascular activity. In contrast to the conscious rat model, this model offers an experimental set up with less variation in the baseline cardiovascular and respiratory measures. Compounds screened in this assay may be examined in a conscious rat model.
Rats were initially anesthetized with 3% isoflurane (inhaled) and femoral artery and vein cannulas were surgically inserted. Once cannulated, the rats were transitioned to urethane anesthesia (1.5 g/kg; i.v.) and a tracheal cut-down was performed. After placing the tracheal cannula, it was connected to a pneumotachometer to record respiratory airflow from which respiratory rate (RR), tidal volume (VT), and their product minute volume were derived. After the surgical preparation was complete, animals were allowed to stabilize for 30 minutes while respiratory rate, tidal volume, minute volume, blood pressure and heart rate were recorded continuously. Arterial blood gases (ABG) were obtained from arterial blood collected from the femoral artery. ABG measurements were taken before and 6 minutes after vehicle and each dose of compound administered. Compounds being screened were administered via bolus injections through the venous cannula followed by a saline flush (total time of administration is approximately 30 seconds), and the animal was monitored for at least 6 minutes for changes in cardiovascular efforts. Compounds were prepared in formulations identified to ensure optimal solubility. As such, vehicle controls were matched for the formulation of each compound tested. Dosing of the compound being screened was 0.1 and 0.3 mg/kg. The next dose was not administered until all cardiovascular and respiratory measures had returned to baseline levels. The positive control compounds used were N-[4,6-di-(n-propylamino)-[1,3,5]triazin-2-yl]-N,O-dimethyl-hydroxylamine or N-[2,6-di-(n-propylamino)-[1,3]pyrimidin-4-yl]-N,O-dimethyl-hydroxylamine (both administered at the end of each screening experiment (0.3 mg/kg dose) to validate the experiment and also to serve as a measure with which the compound being screened could be compared.
Data were analyzed by collecting cardiovascular and respiratory data in 30 second averages (BINs). Data were plotted 2 minutes before challenge and then 6 minutes after challenge.

[4] = test system: rats chronically treated with morphine; experiment: Apnea, ventilation and sleep structure in rats chronically treated with morphine (whole-body plethysmography); assay type: in vivo, Zucker rats; details: oral gavage; for apnea frequency / number of apneas per hr expressed as a percent change from baseline (pre-drug): versus treatment with a vehicle
Description: The objective of this study was to quantify the effects of selected compounds of this invention on apnea, ventilation and sleep structure in a rat model. The study consisted of two treatment conditions: (1) chronic morphine and test compound administered orally, and (2) chronic morphine and oral vehicle.
Adult male lean Zucker rats were anesthetized for electroencephalogram (EEG) and electromyogram (EMG) telemeter implantation. At least one week was permitted post-surgery before animals were used further. Morphine sulfate was added to the drinking water of singly housed rats beginning with 0.1 mg/ml morphine and increasing the concentration in increments, so that a final concentration of 0.6 mg/ml was achieved within 2 weeks. All respiratory measurements were made while animals were unrestrained in whole-body plethysmography chambers to permit animals to sleep and move freely. To avoid eliciting withdrawal, morphine water was continuously available during each plethysmography experiment. Minute volume and the number of central sleep apneas (CSA) were measured during all treatment conditions. A period of at least 1 to 1.5 h was permitted for animals to acclimate to the chamber before data collection began. The biopotential telemeters and their receivers were placed directly under the plethysmographic chambers and were used to continuously to capture EEG, EMG, and body temperature signals. Only data collected between the hours of 10 am to 4:30 pm were used in the final analysis to control for the effects of circadian rhythm on breathing.
Test compound in vehicle or an equivalent volume of vehicle was administered via an oral gavage tube at 12 pm. Data collected between 10 am and 12 pm represented baseline (pre-drug) conditions. Data collected between […] represented post-drug conditions. Analyses of the EEG and EMG waveforms for the purpose of staging sleep-wake behavior in rats as awake, NREM sleep, and REM sleep were based on previous sleep studies involving rodents. Central apneas were defined as a respiratory cycle period that was more than or equal to twice the average cycle period during baseline recordings. Percent time in each sleep-wake state, minute volume, and central sleep apnea counts were compared between treatment groups using a two-way ANOVA (factors: drug treatment and time). Breathing data during wakefulness was not analyzed because movement prevents measurement of accurate volumes when using whole-body plethysmography. When differences were detected with ANOVA, Student-Neuman-Keuls post hoc tests were run for all main effects and interactions. Differences were considered significant when p<0.05. Values are expressed as means±SE.

| Compound | half-life at 5 μM [1] | half-life at 5 μM [2] | AUC MV Inc (2 min) (ratio vs. std*) [3] | further results |
| --- | --- | --- | --- | --- |
| CCCNc1nc(NCCC)c2nc(NCCC)nc(NCCC)c2n1.Cl [Compound 6a, N^2,N^4,N^6,N^8-Tetra-n-propyl-pyrimido[5,4-d]pyrimidine-2,4,6,8-tetraamine hydrochloride] | 6.93 h | > 8.33 h | 0.54 ratio vs. std | melting point: 208 to 211 °C |
| CCCNc1nc(NC)c2nc(NCCC)nc(NC)c2n1.Cl [Compound 27a, N^4,N^8-Dimethyl-N^2,N^6-di-n-propyl-pyrimido[5,4-d]pyrimidine-2,4,6,8-tetraamine hydrochloride] | 2.27 h | 2.12 h | 1.22 ratio vs. std | apnea frequency ([4]; hydrochloride): reduced; also recorded: decreased; number of apneas per hr expressed as a percent change from baseline (pre-drug) ([4]; hydrochloride): reduced; also recorded: decreased; minute volume compared to a vehicle-treated group ([4]; hydrochloride): did not cause an increase; also recorded: do not cause increases; number of apneas per hr versus vehicle ([4]; hydrochloride): reduced; also recorded: decreased; ventilation per unit time compared to vehicle ([4]; hydrochloride): did not cause an increase; also recorded: do not cause an increase; duration of increase in minute ventilation ([3]; anesthetized rat, i.v. bolus): approximately 2 minutes; effect on blood pressure ([3]; anesthetized rat, i.v. bolus): minimal effects; effect on minute ventilation above baseline values ([3]; anesthetized rat, i.v. bolus): increase; effect on pulse rate ([3]; anesthetized rat, i.v. bolus): minimal effects; effect on respiratory rate ([3]; anesthetized rat, i.v. bolus): stimulatory effects; dose dependence of effect on minute volume ([3]; based on a two-minute average): dose-dependent effect; effect compared to a reference compound as measured by area-under-curve ([3]; minute volume, two-minute average): greater effect |
| CNc1nc(NCC2CC2)nc2c(NC)nc(NCC3CC3)nc12 [Compound 84, N^2,N^6-Bis-cyclopropylmethyl-N^4,N^8-dimethyl-pyrimido[5,4-d]pyrimidine-2,4,6,8-tetraamine] | – | – | – | melting point: 264 to 268 °C |
| CNc1nc(N(C)NC)nc2c(NC)nc(N(C)NC)nc12 [Compound 91, 2,6-bis-(N,N′-dimethyl-hydrazino)-N^4,N^8-dimethyl-pyrimido[5,4-d]pyrimidine-4,8-diamine] | 0.4 h | 1.7 h | 0.08 ratio vs. std | – |
| CCCNc1nc(NC)c2nc(C(=O)O)nc(NC)c2n1 [Compound 108, 4,8-Bis-methylamino-6-n-propylamino-pyrimido[5,4-d]pyrimidine-2-carboxylic acid] | – | – | 0.05 ratio vs. std | melting point: 218 to 220 °C |
| CCCNc1nc(NCC)nc2c(NCCC)nc(NCC)nc12 [Compound 137a, N^2,N^6-Diethyl-N^4,N^8-di-n-propyl-pyrimido[5,4-d]pyrimidine-2,4,6,8-tetraamine] | 1.62 h | 3.78 h | 0.88 ratio vs. std | minute volume compared to a vehicle-treated group [4]: do not cause increases; number of apneas per hr versus vehicle [4]: reduced; also recorded: decreased; ventilation per unit time compared to vehicle [4]: did not cause an increase; also recorded: do not cause an increase; minute volume compared to a vehicle-treated group ([4]; higher dose): caused an increase; minute volume compared to a vehicle-treated group ([4]; low dose): did not cause an increase; apnea frequency [4]: reduced; also recorded: decreased; number of apneas per hr expressed as a percent change from baseline (pre-drug) [4]: reduced; also recorded: decreased |
| CCCNc1nc(NC2CC2)nc2c(NCCC)nc(NC3CC3)nc12 [Compound 138, N^2,N^6-Dicyclopropyl-N^4,N^8-di-n-propyl-pyrimido[5,4-d]pyrimidine-2,4,6,8-tetraamine] | 5.52 h | > 8.33 h | 0.53 ratio vs. std | melting point: 210 to 212 °C |
| C=CCNc1nc(NC)nc2c(NCC=C)nc(NC)nc12.Cl [Compound 145a, N^4,N^8-Diallyl-N^2,N^6-dimethyl-pyrimido[5,4-d]pyrimidine-2,4,6,8-tetraamine hydrochloride] | – | – | 0.88 ratio vs. std | apnea frequency ([4]; hydrochloride): reduced; also recorded: decreased; number of apneas per hr expressed as a percent change from baseline (pre-drug) ([4]; hydrochloride): reduced; also recorded: decreased; minute volume compared to a vehicle-treated group ([4]; hydrochloride): did not cause an increase; also recorded: do not cause increases; number of apneas per hr versus vehicle ([4]; hydrochloride): reduced; also recorded: decreased; ventilation per unit time compared to vehicle ([4]; hydrochloride): did not cause an increase; also recorded: do not cause an increase |

Further lines, with some results ahead:

| half-life at 5 μM [1] | half-life at 5 μM [2] | Compound | AUC MV Inc (2 min) (ratio vs. std*) [3] | further results |
| --- | --- | --- | --- | --- |
| 5.58 h | 4.15 h | CCCCNc1nc(NC)c2nc(NCCCC)nc(NC)c2n1.Cl [Compound 83a, N^2,N^6-Di-n-butyl-N^4,N^8-dimethyl-pyrimido[5,4-d]pyrimidine-2,4,6,8-tetraamine hydrochloride] | 1.05 ratio vs. std | – |
| 0.233 h | 1.35 h | CNc1nc(N(C)NC)nc2c(NC)nc(N(C)C)nc12 [Compound 93a, 6-(N,N′-Dimethyl-hydrazino)-N^2,N^2,N^4,N^8-tetramethyl-pyrimido[5,4-d]pyrimidine-2,4,8-triamine] | 0.03 ratio vs. std | – |
| 1.73 h | 2.02 h | CCCNc1nc(NC)c2nc(-c3ccc(F)cc3)nc(NC)c2n1 [Compound 112a, N^4,N^8-Dimethyl-N^2-n-Propyl-6-(4-fluorophenyl)-pyrimido[5,4-d]pyrimidine-2,4,8-triamine] | 0.14 ratio vs. std | – |
| 4.15 h | 5.08 h | CCCNc1nc(-c2ccc(F)cc2)nc2c(NCCC)nc(NC)nc12 [Compound 114a, N^2-Methyl-N^4,N^8-di-n-propyl-6-(4-fluoro-phenyl)-pyrimido[5,4-d]pyrimidine-2,4,8-triamine] | 0.05 ratio vs. std | – |
| 0.567 h | 1.2 h | CCCCc1nc(NCCC)c2nc(NC)nc(NCCC)c2n1 [Compound 118a, 6-n-Butyl-N^2-methyl-N^4,N^8-di-n-propyl-pyrimido[5,4-d]pyrimidine-2,4,8-triamine] | 0.05 ratio vs. std | – |
| 1.37 h | 1.9 h | CCCNc1nc(OC)nc2c(NCCC)nc(NC)nc12 [Compound 120a, 6-Methoxy-N^2-methyl-N^4,N^8-di-n-propyl-pyrimido[5,4-d]pyrimidine-2,4,8-triamine] | 0.36 ratio vs. std | – |
